The record followed here is US20240383908A1, “SYNTHESIS AND APPLICATION OF PHOSPHATASE DEGRADER” (HINOVA PHARMACEUTICALS INC., priority 2021, published 2024).

Some results are limits rather than exact numbers.

In this assay the target is T1, SHP2 protein (Homo sapiens, UniProt Q06124).
T1 sequence (Q06124 1-593): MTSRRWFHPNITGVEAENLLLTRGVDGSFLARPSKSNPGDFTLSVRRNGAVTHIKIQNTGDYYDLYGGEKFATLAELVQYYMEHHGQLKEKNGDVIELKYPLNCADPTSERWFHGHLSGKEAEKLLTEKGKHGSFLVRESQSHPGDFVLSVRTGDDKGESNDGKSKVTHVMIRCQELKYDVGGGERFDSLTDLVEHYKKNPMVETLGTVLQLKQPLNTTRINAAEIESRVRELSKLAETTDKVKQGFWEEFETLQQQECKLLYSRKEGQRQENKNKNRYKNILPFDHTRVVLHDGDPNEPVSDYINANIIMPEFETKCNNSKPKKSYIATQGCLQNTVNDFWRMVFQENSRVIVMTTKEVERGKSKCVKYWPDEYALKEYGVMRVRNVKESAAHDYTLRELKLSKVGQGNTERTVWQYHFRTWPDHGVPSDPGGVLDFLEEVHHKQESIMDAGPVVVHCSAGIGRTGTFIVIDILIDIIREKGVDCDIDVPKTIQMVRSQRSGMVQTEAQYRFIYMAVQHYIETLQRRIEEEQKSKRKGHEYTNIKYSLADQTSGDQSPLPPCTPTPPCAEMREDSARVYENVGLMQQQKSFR
As to the kind of experiment: Degradation activity on SHP2 protein in MIA Paca-2 cells (Western blot, DC50). The assay is classed as cell-based. Set-up: endogenous in cells; host or cells: MIA Paca-2 cells. The note with it: read-out: Degradation activity for differenct cell lines MIA Paca-2 (DC50). On the procedure:
(1) MV-411 cells were cultured in the cell culture medium, and then well-growing cells were selected and inoculated in a 12-well plate, with 1 mL/well and 1×10^6 cells/well. The plate was incubated overnight in a 5% CO2 cell incubator at 37° C.
(2) 10 mM storage solution of each drug was prepared using dimethylsulfoxide (DMSO). The stock solution was diluted gradually with DMSO before use, and then 1 μL of the compound solution was added to the cell culture well (to ensure that the DMSO concentration in the culture system was […]), so that the final drug concentration is 100 nM, 10 nM, 3 nM, 1 nM, 0.3 nM, and 0.1 nM. Two wells were set for each concentration. The plate was gently shaken and mixed. Additionally, negative control wells (containing an equal amount of DMSO) and positive control wells were included.
(3) After 24 hours of cultivation, the cells were lysed using RIPA cell lysate, and the proteins were extracted. The protein concentration was measured using a BCA assay kit. 5× concentrated protein buffer was loaded, heated at 100° C. for 5 min, and then the sample was stored at −20° C.
(4) For each well, 30 μg of protein was loaded to polyacrylamide gel for electrophoresis.
(5) The protein was transferred from polyacrylamide gel to PVDF membrane, and sealed at room temperature with 5% skimmed milk for 1 h, which was then incubated with the primary antibodies (Anti-SHP2 rabbit mAb and Anti-GAPDH rabbit mAb) at 4° C. overnight. The membrane was washed three times with TBST solution, 10 minutes for each time. After that, the membrane was incubated with the secondary antibodies (horseradish peroxidase labeled goat anti-rabbit IgG) at room temperature for 2 h, and then washed three times with TBST solution, 10 minutes for each time, followed by exposure.
(6) The images were analyzed with Image J grayscale, and the degradation ratio of protein bands in the test group was calculated, based on the negative control group (DMSO) (100%).
(7) Using the Dose-response-inhibition equation in the data processing software GraphPad Prism 8, the DC50 value was obtained (which represents the drug concentration corresponding to 50% degradation of the target protein).
Using similar methods and different cell lines, the degradation activity of the compound according to the present invention on SHP2 protein of different cell lines was tested under suitable culture conditions.
(In general: Immunoblotting shows a protein as a band on a membrane.)

What is called DC50 is the midpoint of the concentration-degradation curve. Consider `C[C@@H]1OCC2(CCN(c3cnc(Sc4cccc(NC(=O)c5ccc(N6CCC(N7CC=C(c8ccc(C(=O)NCc9ccc%10c(c9)CN(C9CCC(=O)NC9=O)C%10=O)nc8)CC7)C6)c(F)c5)c4)cn3)CC2)[C@@H]1N` (stereo partly shown) [Compound 516], for which the DC50 was under 0.1 µM. As for `CC1(N)CCN(c2cnc(Sc3cccc(NC(=O)[C@H]4C[C@@H]4c4ccc(N5CCN(c6ccc(C(=O)N7CCN(c8ccc9c(c8)CN(C8CCC(=O)NC8=O)C9=O)CC7)nn6)CC5)c(F)c4)c3)cn2)CC1` (stereo partly shown) [Compound 283], the figure is over 1 µM.

For `Cc1cc(C(=O)Nc2cccc(Sc3cnc(N4CCC(C)(N)CC4)cn3)c2)cc(C)c1N1CCC(N2CC=C(c3ccc(C(=O)NCc4ccc5c(c4)CN(C4CCC(=O)NC4=O)C5=O)nc3)CC2)CC1` (stereo not shown) [Compound 486], the DC50 was under 0.1 µM. Turning to `C[C@@H]1OCC2(CCN(c3cnc(Sc4cccc(NC(=O)C5CCC(N6CCN(c7ccc(C(=O)NCc8ccc9c(c8)CN(C8CCC(=O)NC8=O)C9=O)nn7)CC6)CC5)c4)cn3)CC2)[C@@H]1N` (stereo partly shown) [Compound 476], the DC50 was over 1 µM. As to `CC1(N)CCN(c2cnc(Sc3cccc(NC(=O)[C@H]4C[C@@H]4c4ccc(N5CCN(c6ccc(C(=O)NCc7ccc8c(c7)CN(C7CCC(=O)NC7=O)C8=O)nn6)CC5)c(F)c4)c3)cn2)CC1` (stereo partly shown) [Compound 281], the DC50 was over 1 µM. As for `Cc1cc(C(=O)NCc2ccc3c(c2)CN(C2CCC(=O)NC2=O)C3=O)ncc1C1=CCN(C2CCN(c3ccc(C(=O)Nc4cccc(Sc5cnc(N6CCC(C)(N)CC6)cn5)c4)cc3C)CC2)CC1` (stereo not shown) [Compound 456], the figure is 0.1 to 1 µM; as for `CC1(N)CCN(c2cnc(Sc3cccc(NC(=O)c4ccc(N5CCC(N6CC=C(c7ccc(C(=O)Nc8ccc9c(c8)CN(C8CCC(=O)NC8=O)C9=O)nn7)CC6)CC5)nc4)c3)cn2)CC1` (stereo not shown) [Compound 327], under 0.1 µM; as for `CC1(N)CCN(c2cnc(Sc3cccc(NC(=O)c4ccc(N5CCC(N6CCN(c7ccc8c(c7)C(=O)N(C7CCC(=O)NC7=O)C8=O)CC6)CC5)c(F)c4)c3)cn2)CC1` (stereo not shown) [Compound 277], over 1 µM. As for `CC1(N)CCN(c2cnc(Sc3cccc(N4CCC(C(=O)N5CCN(c6ccc7c(c6)CN(C6CCC(=O)NC6=O)C7=O)CC5)CC4)c3)cn2)CC1` (stereo not shown) [Compound 333], the figure is over 1 µM. As for `CC1(N)CCN(c2cnc(Sc3cccc(NC(=O)C4(c5ccc(N6CCN(c7ccc(C(=O)NCc8ccc9c(c8)CN(C8CCC(=O)NC8=O)C9=O)nc7)CC6)cc5)CC4)c3)cn2)CC1` (stereo not shown) [Compound 332], the figure is over 1 µM. Regarding `CC1(N)CCN(c2cnc(Sc3cccc(NC(=O)C4CC(N5CCN(c6ccc7c(c6)C(=O)N(C6CCC(=O)NC6=O)C7=O)CC5)C4)c3)cn2)CC1` (stereo not shown) [Compound 268], the DC50 is over 1 µM. Turning to `CC1(N)CCN(c2cnc(Sc3cccc(NC(=O)c4ccc(N5CCC(N6CCN(c7ccc(C(=O)NCc8ccc9c(c8)CN(C8CCC(=O)NC8=O)C9=O)cc7F)CC6)CC5)cc4)c3)cn2)CC1` (stereo not shown) [Compound 513], the DC50 is under 0.1 µM. As for `CC1(N)CCN(c2cnc(Sc3cccc(NC(=O)c4csc(N5CCC(N6CC=C(c7ccc(C(=O)NCc8ccc9c(c8)CN(C8CCC(=O)NC8=O)C9=O)nc7)CC6)CC5)n4)c3)cn2)CC1` (stereo not shown) [Compound 358], the figure is over 1 µM; as for `CC1(N)CCN(c2cnc(Sc3cccc(NC(=O)C4CC45CCC(N4CC=C(c6ccc(C(=O)N7CCN(c8ccc9c(c8)CN(C8CCC(=O)NC8=O)C9=O)CC7)nc6)CC4)CC5)c3)cn2)CC1` (single isomer, unassigned) [Compound 322], over 1 µM; as for `Cc1cc(C(=O)Nc2cccc(Sc3cnc(N4CCC(C)(N)CC4)cn3)c2)ccc1N1CCC(N2CC=C(c3ccc(C(=O)NCc4ccc5c(c4)CN(C4CCC(=O)NC4=O)C5=O)cc3)CC2)CC1` (stereo not shown) [Compound 453], 0.1 to 1 µM.

In the case of `CC1(N)CCN(c2cnc(Sc3cccc(NC(=O)c4cnc(N5CCC(N6CC=C(c7ccc(C(=O)NCc8ccc9c(c8)CN(C8CCC(=O)NC8=O)C9=O)nn7)CC6)CC5)cn4)c3)cn2)CC1` (stereo not shown) [Compound 429], the DC50 lay in the range of 0.1 to 1 µM. With `CC1(N)CCN(c2cnc(Sc3cccc(NC(=O)c4ccc(N5CCC(N6CC=C(c7ccc(C(=O)NCc8ccc9c(c8)CN(C8CCC(=O)NC8=O)C9=O)nn7)CC6)CC5)nc4)c3)cn2)CC1` (stereo not shown) [Compound 326] the figure was under 0.1 µM; with `CC1(N)CCN(c2cnc(Sc3cccc(NC(=O)C4CC45CCC(N4CC=C(c6ccc(C(=O)Nc7ccc8c(c7)CN(C7CCC(=O)NC7=O)C8=O)nc6)CC4)CC5)c3)cn2)CC1` (single isomer, unassigned) [Compound 316], over 1 µM. With `C[C@@H]1OCC2(CCN(c3cnc(Sc4cccc(NC(=O)C5CC56CCN(c5ccc(CN7CCN(c8ccc9c(c8)CN(C8CCC(=O)NC8=O)C9=O)CC7)cc5F)CC6)c4)cn3)CC2)[C@@H]1N` (stereo partly shown) [Compound 273] the figure was over 1 µM; with `CC1(N)CCN(c2cnc(Sc3cccc(NC(=O)c4ccc(N5CCC(N6CCN(c7ccc(C(=O)NCc8ccc9c(c8)CN(C8CCC(=O)NC8=O)C9=O)nc7)CC6)CC5)nn4)c3)cn2)CC1` (stereo not shown) [Compound 450], under 0.1 µM; with `C[C@@H]1OCC2(CCN(c3cnc(Sc4cccc(NC(=O)[C@H]5C[C@@H]5c5ccc(N6CCN(c7ccc(C(=O)NCc8ccc9c(c8)CN(C8CCC(=O)NC8=O)C9=O)nn7)CC6)c(F)c5)c4)cn3)CC2)[C@@H]1N` (stereo partly shown) [Compound 282], over 1 µM. As for `C[C@@H]1OCC2(CCN(c3cnc(Sc4cccc(NC(=O)CCN5CCN(c6ccc(C(=O)NCc7ccc8c(c7)CN(C7CCC(=O)NC7=O)C8=O)nn6)CC5)c4)cn3)CC2)[C@@H]1N` (stereo partly shown) [Compound 289], the figure is over 1 µM.

With `Cc1cc(C(=O)NCc2ccc3c(c2)CN(C2CCC(=O)NC2=O)C3=O)ncc1C1=CCN(C2CCN(c3ccc(C(=O)Nc4cccc(Sc5cnc(N6CCC(C)(N)CC6)cn5)c4)cc3F)CC2)CC1` (stereo not shown) [Compound 470], the DC50 was in the range of 0.1 to 1 µM. With `CC1(N)CCN(c2cnc(Sc3cccc(NC(=O)c4ccc(C5=CCC(N6CC=C(c7ccc(C(=O)N8CCN(c9ccc%10c(c9)CN(C9CCC(=O)NC9=O)C%10=O)CC8)nc7)CC6)CC5)cc4)c3)cn2)CC1` (stereo not shown) [Compound 308] the figure was under 0.1 µM. With `CC1(N)CCN(c2cnc(Sc3cccc(NC(=O)c4ncc(N5CCC(N6CCN(c7ccc(C(=O)NCc8ccc9c(c8)CN(C8CCC(=O)NC8=O)C9=O)nn7)CC6)CC5)cn4)c3)cn2)CC1` (stereo not shown) [Compound 449], the DC50 was under 0.1 µM.

Consider `C[C@@H]1OCC2(CCN(c3cnc(Sc4cccc(NC(=O)c5ccc(N6CCC(N7CC=C(c8cnc(C(=O)NCc9ccc%10c(c9)CN(C9CCC(=O)NC9=O)C%10=O)c(F)c8)CC7)CC6)c(F)c5)c4)cn3)CC2)[C@@H]1N` (stereo partly shown) [Compound 464], for which the DC50 was under 0.1 µM.

For `C[C@@H]1OCC2(CCN(c3cnc(Sc4cccc(NC(=O)c5ccc(CN6CC7(CCN(c8ccc(C(=O)NCc9ccc%10c(c9)CN(C9CCC(=O)NC9=O)C%10=O)cn8)C7)C6)cc5)c4)cn3)CC2)[C@@H]1N` (stereo partly shown) [Compound 490], the DC50 lay within 0.1 to 1 µM. As for `C[C@@H]1OCC2(CCN(c3cnc(Sc4cccc(NC(=O)c5ccc(N6CCC(N7CC=C(C8CCC(C(=O)NCc9ccc%10c(c9)CN(C9CCC(=O)NC9=O)C%10=O)CC8)CC7)CC6)c(F)c5)c4)cn3)CC2)[C@@H]1N` (stereo partly shown) [Compound 512], the figure is 0.1 to 1 µM; as for `CC1(N)CCN(c2cnc(Sc3cccc(NC(=O)c4ccc(N5CCC(N6CC=C(c7ncc(C(=O)NCc8ccc9c(c8)CN(C8CCC(=O)NC8=O)C9=O)cc7C(F)(F)F)CC6)CC5)cc4)c3)cn2)CC1` (stereo not shown) [Compound 359], under 0.1 µM.

As for `CC1(N)CCN(c2cnc(Sc3cccc(NC(=O)c4cnc(N5CCC(N6CC=C(c7ccc(C(=O)NCc8ccc9c(c8)CN(C8CCC(=O)NC8=O)C9=O)nc7)CC6)CC5)o4)c3)cn2)CC1` (stereo not shown) [Compound 340], the DC50 was over 1 µM.

In the case of `CC1(N)CCN(c2cnc(Sc3cccc(N4CCC(CN5CCN(c6ccc7c(c6)CN(C6CCC(=O)NC6=O)C7=O)CC5)CC4)c3)cn2)CC1` (stereo not shown) [Compound 341], the half-maximal degradation concentration (DC50) was over 1 µM.
